Data from patent publication US5602156A, “Method for inhibiting metalloproteinase expression” (The United States of America as represented by the …, priority 1994, dated 1997).
Entries after “also recorded” stand apart in the source; their conditions may differ.

How the values were obtained:
[1] = tested on: gelatinase activity of the metalloproteinases; assay: Zymogram slices incubated with compound 1 or calcium chelators in the activating buffer (direct inhibition of enzyme); format: biochemical, human
Method: See, Felder, et al., J. Pharm. Exp. Therapeut. 257:967-971 (1991) and unpublished observations by the inventors.
Gelatin zymography was carded out using control conditioned media from A2058 cells and HT1080 cells in the absence of compound 1. Zymogram slices were incubated in low salt collagenase buffer with control (DMSO 0.1%), an inhibitory dose of compound 1 (20 μM), or the calcium chelators EGTA (10 mM) and EDTA (10 mM). […] See, Brown, et al., Cancer Res. 50:6184-6191 (1990). […] Lane 1 for each of the zymograms corresponds to A2058 while lane 2 corresponds to HT1080.

[2] = tested on: MMP-2; assay: Western immunoblot of MMP-2 species in conditioned media; format: cell-based, human
Method: Conditioned media for zymogram and Western blot analysis were produced under serum-free conditions. Cells (2 million) were plated in 25 cm^2 flasks in serum-containing medium and cultured overnight. Serum-containingmedium was removed and the cell monolayers were washed twice with DMEM/ITS (DMEM containing insulin (5 μg/mL), transferrin (5 μg/mL), and selenium (5 ng/mL)). The resultant cells were fed with 3 mL of DMEM/ITS and additives as described in the Examples for two 24 hour periods. Conditioned media samples were collected at 24 hours and cells were refed with fresh DMEM/ITS containing the described additives for an additional 24 hours. Conditioned media samples were centrifuged to remove cells and debris then frozen at -20° C. until use. Freeze and thaw cycles of the conditioned media were limited to no more than two.
This example illustrates the dose-dependent effects of compound 1 on the presence of MMP-2 and its activated species. Western immunoblots were used to detect the effect of compound 1 on the presence of MMP-2 and its activated species and for crude quantitation of MMP-2 presence.
(§1) A2058 and HT1080 conditioned media samples were concentrated 10-fold using ultrafiltration units excluding material of less than 10 or 30 kDa in molecular weight. Aliquots of 15 μL were electrophoresed on 4-20% gradient PAGE gels, electrically transferred to membranes and immunoblotted with specific polyclonal antibody to proMMP-2. This antibody, made to the MMP-2/TIMP-2 complex recognizes the latent and activated MMP-2 species and crossreacts with TIMP-2 (21 kDa).

[3] = tested on: MMP-2; assay: Northern blot of MMP-2 mRNA from A2058 cells; format: cell-based, human; conditions: 2 μM; for inhibition in MMP-2 transcription: corrected for loading (GAPDH)
Method: (§2) This example illustrates the effect of compound 1 on MMP-1 and MMP-2 mRNA from A2058 cells using Northern blot analysis.
(§3) Total cytoplasmic RNA was purified from A2058 cells using cesium chloride density centrifugation. Cells were treated with DMSO vehicle (0.05 %) or compound 1 (2 μM) for 24 or 48 hr. Total RNA yields from treated and control cells (μg/10^6 cells) were similar. Aliquots (5 μg) of total RNA were denatured and separated on formaldehyde-1% agarose slab gels, passively transferred to GeneScreen, and crosslinked using ultraviolet light exposure. RNA was hybridized in buffer (50% deionized formamide, 5x SSC, 10 mM Tris HCl pH 7.5, 1x Denharts solution without albumin, 1.0% SDS, and 0.125 mg/mL salmon sperm DNA) containing 10^6 counts/mL of ^32 P- labeled probe of either MMP-2, MMP-1, or with GAPDH which was used as a measure of RNA load. Probes were labeled to high specific activity with ^32 P-dCTP using a random primer labeling protocol. The cDNA probes for the MMP-2, MMP-1, and GAPDH have been described. See, Brown, et al., Cancer Res. 50:6184-6191 (1990); Templeton, et at., Cancer Res. 50:5431-5437 (1990); and Fort, et al., Nucleic Acids Res. 13:1431-1441 (1985). Radiolabeled bands were quantitated using laser densitometric analysis of autoradiography bands. Numeric data are presented as percent inhibition of IVase or interstitial collagenase expression corrected for loading using GAPDH.

[4] = tested on: proliferation and metastasis; conditions: cited from earlier work
[5] = tested on: phospholipase C-γ; conditions: cited from earlier work
[6] = tested on: MMP-1; assay: Northern blot of MMP-1 mRNA from A2058 cells; format: cell-based, human; conditions: 2 μM
Method: as §2
as §3, with “Numeric data are presented as percent inhibition of IVase or interstitial collagenase expression corrected for loading using GAPDH.” left out

[7] = tested on: gelatinase activity; assay: Gelatin zymography of A2058 and HT1080 cells, compound 1 with or without TGF-β1 (results in words); format: cell-based, human
Method: (§4) A2058 and HT1080 cells were incubated with compound 1 (2 μM), with or without TGF-β1 (5 ng/mL) for 24 and 48 hours prior to harvest of conditioned media. Aliquots were subjected to gelatin zymography as described in Example 1. Known concentrated conditioned medium from HT1080 cells was used for identification of the gelatinase species (92 kDa, gelatinase B/MMP-9; 72 kDa, gelatinase A/MMP-2 latent form; 65 kDa intermediate and 62 kDa activated forms of MMP-2).
(§5) Lane 1 is the control resulting from treatment of the cells with 0.1% DMSO. Lanes 2 and 3 correspond to those cells which are treated with 2 μM compound 1 in the absence of TGF-β1 for 24 and 48 hours, respectively. Lane 4 corresponds to cells which have been treated with TGF-β1 in the absence of compound 1. Lane 5 corresponds to cells which have been treated with TGF-β1 for 48 hours with compound 1 being added to the incubation mixture for the final 24 hours. Lane 6 corresponds to cells which have been treated for 48 hours with both TGF-β1 and compound 1.

[8] = tested on: MMP-2; assay: Western immunoblot of conditioned media from compound 1 and TGF-β1 treated cells; format: cell-based, human; conditions: HT1080 and A2058; 2 μM, 24 and 48 hr
Method: as §1, §4
as §5, with “Lane 6 corresponds to cells which have been treated for 48 hours with both TGF-β1 and compound 1.” left out

[9] = tested on: arachidonic acid release; conditions: cited from earlier work

SMILES: NC(=O)c1nnn(Cc2cc(Cl)c(C(=O)c3ccc(Cl)cc3)c(Cl)c2)c1N [Compound 1, 5-amino-l-(4-(4-chlorobenzoyl)-3,5-dichlorobenzyl)-1,2,3-triazole-4-carboxamide]
- mechanism not due to calcium chelation [1]: not due to calcium chelation
- gelatinase activity of enzymes in isolation ([1]; compound 1 in zymogram incubation buffer, 20 μM, A2058 and HT1080 media): lack of reduction of gelatinolytic activity in conditioned medium; also recorded: does not inhibit gelatinase activity of the metalloproteinases; also recorded: did not effect its activity in isolation
- presence of the MMP-2 species ([2]; A2058 and HT1080, FIG. 4): dose-dependent reduction of the presence of the MMP-2 species
- presence of the MMP-2 species ([2]; A2058 and HT1080, FIG. 4, listed as compound 1): dose-dependent
- presence of the MMP-2 species ([2]; after incubation with 20 μM compound 1): more complete reduction of all species
- shift of MMP-2 species ([2]; before more complete reduction of all species): shift to the lower molecular weight activated species
- expression of type IV collagenase/gelatinase A MMP-2 [3]: inhibits the expression
- inhibition in MMP-2 transcription ([3]; 24 hr): greater than 50%
- inhibition in MMP-2 transcription ([3]; 48 hr): greater than 50%
- antiproliferative and antimetastatic activities [4]: antiproliferative and antimetastatic activities
- tyrosine phosphorylation with activation of phospholipase C-γ [5]: inhibits
- expression of interstitial collagenase MMP-1 [6]: inhibits the expression of interstitial collagenase MMP-1
- reduction of gelatinase activity ([7]; A2058 and HT1080, 2 μM, 24 and 48 hr, no TGF-β1): increased from 24 to 48 hr exposure
- effect on TGF-β1-increased gelatinase activity ([7]; TGF-β1 48 hr, compound 1 over the final 24 hr): little effect
- effect on TGF-β1-increased gelatinase activity ([7]; TGF-β1 with compound 1 co-incubation for 48 hr): inhibited
- inhibition of MMP-2 (immunoblot) [8]: inhibits MMP-2 in a time-dependent manner
- arachidonic acid release [9]: inhibits
